Values after ≈ are worked out from the molar mass of the structure shown. Read-outs that look alike come from different tables or passages of the source.
Tests used:
Assay type in all cases: cell-based
[1] = system: Staphylococcus aureus (H-Heatley) NRRL B-314; experiment: in vitro turbidometric assay (Autoturb Microbiological Assay System) against Staphylococcus aureus; conditions: nutrient broth pH 7, approximately 4 hours at 37° C., A-40104 factor A as standard
Experimental: The compounds are conveniently tested against a typical gram-positive organism, Staphylococcus aureus, using a turbidometric assay on a semi-automated system (Autoturb Microbiological Assay System, Elanco) described by N. R. Kuzel and F. W. Kavanagh in J. Pharmaceut. Sci, 60 (5), 764 and 767 (1971). In testing these compounds, the following parameters were used: Staphylococcus aureus (H-Heatley) NRRL B-314 in a nutrient broth medium (pH 7), incubated for approximately 4 hours at 37° C. Test samples and A-40104 factor A, which is used as a standard, were dissolved in water. The standard was presented to the Autoturb carrousel at concentrations of 1.25, 2.50, 3.75, 5.00 and 6.25 mcg/ml. Test compounds were diluted to contain approximately 2.5 to 5.0 mcg of activity per ml, as presented to the carrousel. The units of activity of some of the typical compounds of this invention (R^2 =H in group tested) in this in vitro assay are summarized in Table I

Actinomyces israelii = experiment: standard agar-dilution test, anaerobic bacteria; conditions: 24-hour incubation
Clostridium perfringens = experiment: microbe, parasite or virus in culture; conditions: 24 h
[2] = system: Bacteroides thetaiotaomicron; experiment: standard agar-dilution test, anaerobic bacteria; conditions: 24-hour incubation
Experimental: (§1) Table IV summarizes the activity of typical compounds of this invention, as determined by the standard agar-dilution test.
(§2) *Endpoint read after 24-hour incubation

Clostridium septicum = experiment: standard agar-dilution test, anaerobic bacteria; conditions: 24-hour incubation
Experimental: as §1, §2

Eubacterium aerofaciens = experiment: standard agar-dilution test, anaerobic bacteria; conditions: Collinsella aerofaciens
[3] = system: Peptococcus asaccharolyticus; experiment: standard agar-dilution test, anaerobic bacteria; conditions: Peptoniphilus asaccharolyticus, 24-hour incubation
Peptococcus prevoti = experiment: standard agar-dilution test, anaerobic bacteria
[4] = system: Peptostreptococcus anaerobius; experiment: standard agar-dilution test, anaerobic bacteria; conditions: 24-hour incubation
[5] = system: Peptostreptococcus intermedius; experiment: standard agar-dilution test, anaerobic bacteria
Bacteroides fragilis 111 = experiment: standard agar-dilution test, anaerobic bacteria
[6] = system: Bacteroides fragilis 1877; experiment: standard agar-dilution test, anaerobic bacteria
[7] = system: Bacteroides fragilis 1936B; experiment: standard agar-dilution test, anaerobic bacteria
[8] = system: Bacteroides melaninogenicus 1856/28; experiment: standard agar-dilution test, anaerobic bacteria; conditions: Prevotella intermedia
[9] = system: Bacteroides melaninogenicus 2736; experiment: standard agar-dilution test, anaerobic bacteria
Bacteroides vulgatis = experiment: standard agar-dilution test, anaerobic bacteria
Bacteroides corrodens = experiment: standard agar-dilution test, anaerobic bacteria; conditions: Eikenella corrodens
Fusobacterium symbiosum = experiment: standard agar-dilution test, anaerobic bacteria
[10] = system: Fusobacterium necrophorum; experiment: standard agar-dilution test, anaerobic bacteria
Mycoplasma gallisepticum = experiment: in vitro broth-dilution studies, mycoplasma; conditions: Mycoplasmoides gallisepticum
From the text: (§3) The minimal inhibitory concentrations (MIC's) of a number of typical compounds of the present invention (R^2 =H in group tested) against various mycoplasma species, as determined by in vitro broth-dilution studies, are summarized in Table V.

Mycoplasma hyopneumoniae = experiment: in vitro broth-dilution studies, mycoplasma; conditions: Mesomycoplasma hyopneumoniae
From the text: as §3

Mycoplasma hyorhinis = experiment: in vitro broth-dilution studies, mycoplasma
From the text: as §3

Mycoplasma synoviae = experiment: in vitro broth-dilution studies, mycoplasma; conditions: Mycoplasmopsis synoviae
From the text: as §3

[11] = system: Pasteurella multocida (bovine); experiment: in vitro activity against Pasteurella multocida (bovine)
From the text: (§4) The activity of representative compounds of this invention (R^2 =H in group tested) against P. multocida and the Pseudomonas sp. is summarized in Table VI.

[12] = system: Pasteurella multocida (turkey); experiment: in vitro activity against Pasteurella multocida (turkey)
From the text: as §4

Pseudomonas sp. (fish) = experiment: in vitro activity against Pseudomonas sp. (fish)
From the text: P. multocida, for example, is a causative agent of respiratory infection in cattle, poultry and swine. P. hemolytica is a major cause of respiratory disease in cattle. The activity of representative compounds of this invention (R^2 =H in group tested) against P. multocida and the Pseudomonas sp. is summarized in Table VI.

Spiroplasma citri = experiment: in vitro inhibition of Spiroplasma citri measured by a color reaction
Experimental: In another important aspect, the compounds of this invention are active against Spiroplasmas. Spiroplasma citri is the causative agent of citrus-stubborn disease; another Spiroplasma, corn-stunt Spiroplasma, affects the growth of corn. Table VII summarizes the in vitro activity of representative compounds of the present invention (R^2 =H in this group) against Spiroplasma citri. In this test, inhibition of S. citri is measured by a color reaction. Red (R) includes complete inhibition; red-orange (RO) indicates partial inhibition; and yellow (Y) indicates no inhibition.

[13] = Peptococcus prevoti, 24-hour incubation, read-out: MIC
[14] = Bacteroides fragilis, 111, 24 h
[15] = Bacteroides fragilis, 1877, 24 h
[16] = Bacteroides fragilis, 1936B, 24 h
[17] = 24-hour incubation, read-out: MIC
[18] = Bacteroides melaninogenicus 2736, 24-hour incubation, read-out: MIC
[19] = Peptostreptococcus intermedius, 24-hour incubation, read-out: MIC
[20] = Bacteroides fragilis 1877, 24-hour incubation, read-out: MIC
[21] = Bacteroides fragilis 1936B, 24-hour incubation, read-out: MIC
[22] = Bacteroides vulgatis, 24-hour incubation, read-out: MIC
[23] = Bacteroides corrodens, 24-hour incubation, read-out: MIC

SMILES | Units of Activity [1] | MIC (Actinomyces israelii) | MIC (Clostridium perfringens) | MIC [2] | MIC (Clostridium septicum) | MIC (Eubacterium aerofaciens; 24 h) | MIC [3] | MIC (Peptococcus prevoti; [13]) | MIC [4] | MIC ([5]; Peptostreptococcus, 24 h) | MIC (Bacteroides fragilis 111; [14]) | MIC [6, 15] | MIC [7, 16] | MIC ([8]; 1856/28, 24 h) | MIC (Fusobacterium symbiosum; Fusobacterium, 24 h) | MIC [10, 17] | MIC (Mycoplasma gallisepticum) | MIC (Mycoplasma hyorhinis) | MIC (Mycoplasma synoviae) | MIC [9, 18] | other results
C=C[C@]1(C)C[C@@H](OC(=O)CO[C@H]2O[C@H](COC(C)=O)[C@H](OC(C)=O)[C@H](OC(C)=O)C2=NO)[C@]2(C)[C@H](C)CC[C@]3(CCC(=O)[C@H]32)[C@@H](C)[C@@H]1O [Compound 9, 14-deoxy-14-[(2-deoxy-2-(hydroxyimino)-3,4,6-tri-O-acetyl-α-D-galactopyranosyl)oxyacetoxy]mutilin] | 53 to 54 µg/mg | 1 µg/mL (≈ 1.47 µM) | > 128 µg/mL | > 128 µg/mL | > 128 µg/mL | > 128 µg/mL | 16 µg/mL (≈ 23.5 µM) | 16 µg/mL (≈ 23.5 µM) | 2 µg/mL (≈ 2.94 µM) | > 128 µg/mL | > 128 µg/mL | > 128 µg/mL | > 128 µg/mL | > 128 µg/mL | > 128 µg/mL | 64 µg/mL (≈ 94.2 µM) | < 0.78 µg/mL | 1.56 µg/mL (≈ 2.29 µM) | < 0.78 µg/mL | – | MIC ([9]; 2736, 24 h): > 128 µg/mL; MIC (Bacteroides vulgatis; Bacteroides, 24 h): > 128 µg/mL; MIC (Bacteroides corrodens; 24 h): > 128 µg/mL; MIC (Mycoplasma hyopneumoniae): 0.78 µg/mL (≈ 1.15 µM)
C=C[C@]1(C)C[C@@H](OC(=O)CO[C@H]2O[C@H](COC(C)=O)[C@@H](OC(C)=O)[C@H](OC(C)=O)C2=NO)[C@]2(C)[C@H](C)CC[C@]3(CCC(=O)[C@H]32)[C@@H](C)[C@@H]1O [Compound 7, 14-deoxy-14-[(2-deoxy-2-(hydroxyimino)-3,4,6-tri-O-acetyl-α-D-glucopyranosyl)oxyacetoxy]mutilin] | 11 to 12 µg/mg | 64 µg/mL (≈ 94.2 µM) | > 128 µg/mL | > 128 µg/mL | > 128 µg/mL | > 128 µg/mL | 64 µg/mL (≈ 94.2 µM) | – | 64 µg/mL (≈ 94.2 µM) | > 128 µg/mL | > 128 µg/mL | > 128 µg/mL | > 128 µg/mL | > 128 µg/mL | > 128 µg/mL | – | 0.78 µg/mL (≈ 1.15 µM) | 0.78 µg/mL (≈ 1.15 µM) | > 6.25 µg/mL | 32 µg/mL (≈ 47.1 µM) | MIC (Peptococcus prevoti; 24 h): 128 µg/mL (≈ 188 µM); MIC (Bacteroides vulgatis; Bacteroides, 24 h): > 128 µg/mL; MIC (Bacteroides corrodens; 24 h): > 128 µg/mL; MIC ([10]; 24 h): > 128 µg/mL
C=C[C@]1(C)C[C@@H](OC(=O)CS[C@@H]2O[C@H](COC(C)=O)[C@@H](OC(C)=O)[C@H](OC(C)=O)[C@H]2OC(C)=O)[C@]2(C)[C@H](C)CC[C@]3(CCC(=O)[C@H]32)[C@@H](C)[C@@H]1O [Compound 11, 14-deoxy-14-[(2,3,4,6-tetra-O-acetyl-β-D-glucopyranosyl)thioacetoxy]mutilin] | 253 to 265 µg/mg | ≤ 0.5 µg/mL | > 128 µg/mL | 16 µg/mL (≈ 22.1 µM) | 16 µg/mL (≈ 22.1 µM) | > 128 µg/mL | ≤ 0.5 µg/mL | ≤ 0.5 µg/mL | ≤ 0.5 µg/mL | – | 128 µg/mL (≈ 177 µM) | – | – | > 128 µg/mL | 128 µg/mL (≈ 177 µM) | 16 µg/mL (≈ 22.1 µM) | > 0.78 µg/mL | > 0.78 µg/mL | 1.56 µg/mL (≈ 2.15 µM) | 16 µg/mL (≈ 22.1 µM) | MIC [5, 19]: 1 µg/mL (≈ 1.38 µM); MIC [6, 20]: 32 µg/mL (≈ 44.1 µM); MIC [7, 21]: 32 µg/mL (≈ 44.1 µM); MIC (Bacteroides vulgatis; [22]): 32 µg/mL (≈ 44.1 µM); MIC (Bacteroides corrodens; [23]): 32 µg/mL (≈ 44.1 µM)
C=C[C@]1(C)C[C@@H](OC(=O)CS[C@@H]2OC[C@@H](OC(C)=O)[C@H](OC(C)=O)[C@H]2OC(C)=O)[C@]2(C)[C@H](C)CC[C@]3(CCC(=O)[C@H]32)[C@@H](C)[C@@H]1O [Compound 1, 14-deoxy-14-[(2,3,4-tri-O-acetyl-β-D-xylopyranosyl)thioacetoxy]mutilin] | 568 to 579 µg/mg | ≤ 0.5 µg/mL | 16 µg/mL (≈ 24.5 µM) | 8 µg/mL (≈ 12.3 µM) | ≤ 0.5 µg/mL | – | ≤ 0.5 µg/mL | ≤ 0.5 µg/mL | ≤ 0.5 µg/mL | – | – | – | – | – | – | ≤ 0.5 µg/mL | – | – | – | 2 µg/mL (≈ 3.06 µM) | MIC (Eubacterium aerofaciens; Eubacterium aerofaciens, 24-hour incubation, read-out: MIC): 16 µg/mL (≈ 24.5 µM); MIC [5, 19]: ≤ 0.5 µg/mL; MIC (Bacteroides fragilis 111; Bacteroides fragilis 111, 24-hour incubation, read-out: MIC): 8 µg/mL (≈ 12.3 µM); MIC [6, 20]: 4 µg/mL (≈ 6.13 µM); MIC [7, 21]: 8 µg/mL (≈ 12.3 µM); MIC ([8]; Bacteroides melaninogenicus 1856/28, 24-hour incubation, read-out: MIC): > 128 µg/mL; MIC (Bacteroides vulgatis; [22]): 4 µg/mL (≈ 6.13 µM); MIC (Bacteroides corrodens; [23]): 4 µg/mL (≈ 6.13 µM); MIC (Fusobacterium symbiosum; Fusobacterium symbiosum, 24-hour incubation, read-out: MIC): 4 µg/mL (≈ 6.13 µM); MIC [11]: < 50 µg/mL; MIC [12]: 50 µg/mL (≈ 76.6 µM); MIC (Pseudomonas sp. (fish)): 12.5 µg/mL (≈ 19.1 µM); Activity (color reaction) (Spiroplasma citri; 0.01 ppm): Y,RO; Activity (color reaction) (Spiroplasma citri; 0.05 ppm): --,R; Activity (color reaction) (Spiroplasma citri; 0.1 ppm): R,R; Activity (color reaction) (Spiroplasma citri; 1.0 ppm): R,R

— US4130709A, “Pleuromutilin glycoside derivatives” (Eli Lilly and Company, priority 1977, dated 1978)
